Source: US20240376163A1, “PEPTIDE FOR INHIBITING CALCINEURIN AND USE THEREOF” (Seoul National University R&DB Foundation, priority 2023, published 2024)
Like-named read-outs stand apart in the source and are kept apart here. One block for each molecule: values may come before it.

Tests used:
CNA [1] = details: SPR, CNA 1.25-10 nM
Method: Biacore T200 (Cytiva) was used to capture biotin-labeled peptides on the surface of Series S Sensor Chip SA (Cytiva). […] Each cycle was performed at 25° C. with 120 seconds of contact and 240 seconds of dissociation at a flow rate of 30 μl/min. The kinetics of the interaction were analyzed using BIAvaluation 3.2 RC1 (Cytiva).

CNA [2] = details: biotin-labeled peptides
Method: (§7) A His-pulldown assay was performed with 0.5 ml of IP150 buffer containing 0.5 mM EDTA. His-tagged CNA and GST-tagged peptides were mixed and captured on Ni-NTA agarose beads (Qiagen, Hilden, Germany). The beads were washed three times with binding buffer, and the proteins were analyzed by Western blotting. GST-tagged peptides were pulled down using Glutathione Sepharose™ 4 Fast Flow (Cytiva, Marlborough, MA, USA), and biotin-labeled peptides were pulled down using Streptavidin Agarose Resin (Thermo Fisher Scientific).

CNAβ2 [3] = molecular target: T1, CNAβ2 (Homo sapiens, UniProt P16298); assay: Mammalian two-hybrid assay (GAL4 DBD-peptides, VP16 AD-CNAβ2, pG5-luc) in HEK293T cells; format: cell-based
T1 construct: expressed in transfected cells; host or cells: HEK293T
T1 sequence (P63098 2-170 partner limits assumed, other chains not shown): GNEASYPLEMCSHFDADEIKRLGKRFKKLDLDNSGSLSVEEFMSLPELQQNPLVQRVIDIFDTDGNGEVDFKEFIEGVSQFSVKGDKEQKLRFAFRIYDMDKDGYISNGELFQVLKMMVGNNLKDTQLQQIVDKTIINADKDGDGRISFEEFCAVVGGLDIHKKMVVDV
Method: (§1) To measure the transcriptional activity of NFAT, Jurkat T cells were cotransfected with GST-tagged peptides and NFAT-luc by electroporation. After 24 hours, the cells were pretreated with 0.5 μM FK506 for 1 hour and then treated with 40 nM PMA and 1 μM ionomycin for 8 hours. For mammalian two-hybrid assay, HEK293T cells were cotransfected with GAL4 DBD-tagged CABIN1, VIVIT, chimeric, and substituted peptides, VP16 activation domain-tagged CNAβ2, and pG5-luc (a luciferase reporter plasmid containing the GAL4 reaction promoter) for 24 hours. Harvested cells were lysed with luciferase assay lysis buffer (17 mM KH2PO4, 183 mM K2HPO4, pH 7.8, 0.2% [v/v] Triton X-100) and sonicated briefly. The luciferase activity against each cell lysate was measured using Infinite M200 (Tecan, Männedorf, and Switzerland). In addition, the expression level of the transfected protein was confirmed by Western blotting.

CNAβ2 [4] = molecular target: T1, CNAβ2; assay: Immunoprecipitation assay of Flag-CNAβ2 and tagged peptides in HEK293T cells; format: cell-based
Method: (§2) Cells were lysed in IP150 buffer and immunoprecipitated Flag- and HA-tagged proteins using Anti-FLAG® M2 Affinity Gel (Sigma-Aldrich) and Pierce™ Anti-HA Agarose (Thermo Fisher Scientific), respectively. Conventional methods were used to construct the buffer and subsequent processes (Kim, H. J. et al. Nuclear Acids Res. 46, 6544-6560 (2018)). To quantify the Western blotting results, band regions were measured using ImageJ (https://imagej.nih.gov/ij/).

CNA [5] = assay: In vitro His-pull down assay with purified protein; format: binding
Method: as §7

[6] = tested on: NFAT transcriptional activity; assay: NFAT luciferase reporter assay in Jurkat T cells expressing GST-tagged peptides; format: cell-based; details: PMA and ionomycin treatment
Method: as §1

p38a [7] = molecular target: T2, p38a (Homo sapiens, UniProt Q16539); assay: p38 inhibitor treatment of Jurkat T cells expressing CABIN1 peptide, immunoprecipitation and Western blotting; format: cell-based; parameters: endogenous in cells; host or cells: Jurkat T (E6-1); details: 10 μM, 16 hours
T2 sequence (Q16539 whole entry): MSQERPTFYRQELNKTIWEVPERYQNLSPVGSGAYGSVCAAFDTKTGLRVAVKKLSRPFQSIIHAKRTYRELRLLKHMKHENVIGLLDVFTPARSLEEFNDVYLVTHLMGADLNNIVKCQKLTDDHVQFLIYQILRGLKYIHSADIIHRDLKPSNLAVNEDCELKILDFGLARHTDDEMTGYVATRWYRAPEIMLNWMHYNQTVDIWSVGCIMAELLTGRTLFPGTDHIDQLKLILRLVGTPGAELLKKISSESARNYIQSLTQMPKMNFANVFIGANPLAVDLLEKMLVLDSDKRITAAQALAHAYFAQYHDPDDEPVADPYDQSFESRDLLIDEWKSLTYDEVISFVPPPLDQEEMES
Method: In FIG. 8A, Jurkat T cells expressing HA-mCherry-tagged CABIN1 peptide were treated with 40 nM PMA in a time-dependent manner. Phosphorylated threonine in peptides immunoprecipitated with HA antibody was detected with [PXpTP] antibody. […] In FIG. 8G, Jurkat T cells expressing HA-mCherry-tagged CABIN1 peptide were treated with 10 μM p38a inhibitor for 16 hours. Immunoprecipitation was performed with HA antibody and detected by Western blotting. In FIG. 8H, phosphorylated threonine and peptide-bound CNA in FIG. 8G were measured using ImageJ, and the ratio of phosphorylation and calcineurin bound to CABIN1 peptide was calculated (n=6). The values shown are mean±standard deviation. Statistical differences were determined using one-way analysis of variance. * p<0.05, ** p<0.01, *** p<0.001, CBB: Coomassie Brilliant Blue, NC: negative control.
as §2, with “Conventional methods were used to construct the buffer and subsequent processes (Kim, H. J. et al. Nuclear Acids Res. 46, 6544-6560 (2018)).” left out

ERK2 = molecular target: T3, ERK2 (Homo sapiens, UniProt P28482); assay: In vitro kinase assay; format: biochemical; details: purified GST-tagged peptide
T3 construct: purchased Proqinase GmbH (Freiburg, Germany)
T3 sequence (P28482 whole entry): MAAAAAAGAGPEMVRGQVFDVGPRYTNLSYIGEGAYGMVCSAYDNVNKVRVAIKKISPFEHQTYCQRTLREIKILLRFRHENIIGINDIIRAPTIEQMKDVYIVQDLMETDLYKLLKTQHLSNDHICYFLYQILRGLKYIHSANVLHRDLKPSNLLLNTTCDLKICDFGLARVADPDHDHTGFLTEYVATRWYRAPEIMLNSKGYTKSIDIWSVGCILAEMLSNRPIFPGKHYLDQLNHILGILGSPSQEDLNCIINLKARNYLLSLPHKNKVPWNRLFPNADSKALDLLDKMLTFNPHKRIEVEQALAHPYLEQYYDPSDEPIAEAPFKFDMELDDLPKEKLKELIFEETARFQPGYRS
Method: (§3) Purified GST-tagged peptides were used for the in vitro kinase assay using activated recombinant kinase obtained from Proqinase GmbH (Freiburg, Germany). Kinase reactions were induced in reaction buffer (50 mM HEPES-NaOH, pH 7.5, 3 mM MgCl2, 3 mM MnCl2, 3 μM sodium orthobanadate, 1 mM dithiothreitol, 50 μM unlabeled ATP, 5 μCi 32P-γ-ATP) for 1 hour at 30° C. The reaction was stopped by the addition of 5× sample buffer, and proteins were isolated using SDS-PAGE. The gels were stained with Coomassie Brilliant Blue, dried, and developed on X-ray film.

JNK1 = molecular target: T4, JNK1 (Homo sapiens, UniProt P45983); assay: In vitro kinase assay; format: biochemical; details: purified GST-tagged peptide
T4 construct: purchased Proqinase GmbH (Freiburg, Germany)
T4 sequence (P45983 whole entry): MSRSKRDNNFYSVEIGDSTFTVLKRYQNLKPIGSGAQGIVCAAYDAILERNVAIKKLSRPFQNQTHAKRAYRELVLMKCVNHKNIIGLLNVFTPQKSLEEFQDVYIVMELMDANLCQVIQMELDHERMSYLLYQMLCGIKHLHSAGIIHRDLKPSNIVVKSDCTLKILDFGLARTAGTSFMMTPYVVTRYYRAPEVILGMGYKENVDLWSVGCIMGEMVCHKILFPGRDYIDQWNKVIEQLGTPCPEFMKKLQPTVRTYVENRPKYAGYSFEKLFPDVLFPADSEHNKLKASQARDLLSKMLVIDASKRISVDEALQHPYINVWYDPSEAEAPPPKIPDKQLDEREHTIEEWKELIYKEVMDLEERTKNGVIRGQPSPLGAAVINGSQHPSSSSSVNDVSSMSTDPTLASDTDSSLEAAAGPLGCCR
Method: as §3

p38a [8] = molecular target: T2, p38a; assay: In vitro kinase assay; format: biochemical; details: purified GST-tagged peptide
Method: as §3

CNA [9] = assay: Ka (1/MS)
Method: (§4) Table printed on a drawing sheet, FIG. 7G
Head of the field: Ka (1/MS)
(§5) FIG. 7A is the sequence of the CABIN1 peptide with a threonine to valine substitution (TV). […] In FIG. 7C, a luciferase reporter assay was performed to measure NFAT transcriptional activity in Jurkat T cells expressing GST-tagged CABIN1 peptides under PMA and ionomycin treatment (n=3). […] CNA bound to the peptide and phosphorylated threonine were detected by Western blotting. In FIG. 7E, phosphorylation of the 9th threonine of the CABIN1 peptide (threonine 2154 of full-length CABIN1) was detected by LC-MS/MS in Jurkat T cells. In FIG. 7F, an in vitro pull-down assay was performed using streptavidin-coupled agarose beads. CNA bound to the biotinylated peptide was detected with a His antibody. VEET peptide was used as a negative control. In FIG. 7G, CNA binding to biotinylated CABIN1 peptide according to the presence or absence of phosphorylation of the 9th threonine was measured by SPR. CNA concentration ranges are 1.25, 2.5, 5, and 10 nM. The kinetics of the interaction were calculated using the data of the CABIN1 peptide-captured cells minus the negative control peptide-captured cell. The values shown are mean±standard deviation. RU: […], NC: negative control.
(§6) First copying reader's note: SPR binding kinetics of the peptides to CNA; each cell holds the value together with its ± deviation. […]

CNA [10] = assay: Kd (1/S)
Method: as §4
Head of the field: Kd (1/S)
as §5, §6

Jurkat T cells = assay: DMOG treatment of Jurkat T cells expressing CABIN1 peptide, immunoprecipitation and Western blotting; format: cell-based
Method: In FIG. 6A, Jurkat T cells expressing HA-mCherry-tagged CABIN1 peptide were treated with DMOG for 12 hours in a dose-dependent manner. In FIG. 6B, Jurkat T cells expressing HA-mCherry-tagged CABIN1 peptide were treated with 500 μM DMOG over time. Each cell lysate was immunoprecipitated with HA antibodies, and CNA bound to CABIN1 peptides was detected by Western blotting. HIF-1α was used as a positive control for DMOG treatment. In FIG. 6C, HEK293T cells were transfected with GST-tagged peptides and subjected to GST pull-down assay. Hydroxyproline and O-linked glycosylation of each peptide were detected by Western blotting. NC: negative control.
as §2

Molecule: Biotin-AAAMAGFPPEITVTPP {pTHR} P [phosphorylated CABIN1-L-1]
increase of binding affinity to CNA, phosphorylated vs unphosphorylated CABIN1 peptide (CNA [1]; listed as phosphorylated CABIN1 peptide): about three times
increase of binding affinity to CNA, phosphorylated vs unphosphorylated CABIN1 peptide (CNA [1]; listed as phosphorylated CABIN1 peptides): approximately three-fold
affinity for CNA (pull-down) (CNA [2]): dramatically increased the affinity for CNA

Molecule: MAGFPPEITVTPPTP [CABIN1-L-1] [listing 1 of 2 here]
binding to CNA (CNAβ2 [3]; GAL4 DBD-tagged peptides, VP16 activation domain-tagged CNA, HEK293T): significantly stronger affinity for CNA than CABIN1-14

Molecule: T6V: CABIN1 peptide with threonine 6 (threonine 2151 of full-length CABIN1) replaced with valine (PEITVVPPTP; left off: a dimerising Fc or GST; small tags and cut ends)
interaction with CNA in cells (CNAβ2 [4]): loss of interaction between the CABIN1 peptide and CNA in cells and in vitro
binding to CNA in vitro (CNA [5]): loss of interaction between the CABIN1 peptide and CNA in cells and in vitro

interaction with CNA in cells (CNAβ2 [4]): loss of interaction in cell experiments
Molecule: T9V: CABIN1 peptide with threonine 9 (threonine 2154 of full-length CABIN1) replaced with valine (PEITVTPPVP; left off: a dimerising Fc or GST; small tags and cut ends)
NFAT transcriptional activity (luciferase activity) [6]: restored the transcriptional activity of NFAT inhibited by the wild-type CABIN1 peptide more efficiently than the T6V substitution

binding affinity of CABIN1 peptide for CNA (p38a [7]): reducing binding affinity for CNA
Molecule: Cc1ccccc1C(=O)c1ccc(Nc2ccc(Br)cc2N)cc1Cl [EO 1428]
phosphorylation of the CABIN1 peptide (p38a [7]): significantly reduced phosphorylation of the CABIN1 peptide

improvement of interaction with CNA, VIVIT PPTP vs. VIVIT 10-mer (CNAβ2 [3]; C-terminus PPTP sequence): 4.76 fold
improvement of interaction with CNA, VIVIT PPTP vs. L-1-2 WT (CNAβ2 [3]; N-terminus PVIVIT): 1.93 fold
phosphorylation by ERK2 (ERK2): phosphorylate
phosphorylation by JNK1 (JNK1): phosphorylate
phosphorylation by p38a (p38a [8]): phosphorylate
Molecule: PVIVITPPTP [VIVIT PPTP]

dissociation rate constant (koff) (CNA [10]): 1.31e-3±6.1e-5 1/S
Molecule: MAGFPPEITVTPPTP [CABIN1-L-1] [listing 2 of 2 here]
association rate constant (kon) (CNA [9]): 2613.3±421.5 1/MS

Molecule: COC(=O)CNC(=O)C(=O)OC [DMOG, dimethyloxalylglycine]
interaction between CABIN1 peptide and CNA (Jurkat T cells; DMOG dose-dependent 12 hours or 500 μM over time): had no effect on the interaction between CABIN1 peptide and CNA
HIF-1α stabilization (Jurkat T cells; positive control for DMOG treatment): stabilized HIF-1α
